In patent US8173131B2, “Compositions and methods for modulating RSV infection and immunity” (PerkinElmer Health Sciences, Inc., priority 2000, dated 2012):

B1: G glycoprotein: purified G glycoprotein isolated from RSV/A2-infected Vero cells (protein)
chain: MSKNKDQRTAKTLERTWDTLNHLLFISSCLYKLNLKSVAQITLSILAMIISTSLIIAAIIFIASANHKVTPTTAIIQDATSQIKNTTPTYLTQNPQLGISPSNPSEITSQITTILASTTPGVKSTLQSTTVKTKNTTTTQTQPSKPTTKQRQNKPPSKPNNDFHFEVFNFVPCSICSNNPTCWAICKRIPNKKPGKKTTTKPTKKPTLKTTKKDPKPQTTKSKEVPTTKPTEEPTINTTKTNIITTLLTSNTTGNPELTSQMETFHSTSSEGNPSPSQVSTTSEYPSQPSSPPNTPRQ

What was measured:
[1] = tested on: cell trafficking to the lung (BAL cells); assay: In vivo cell trafficking to the lung of naïve mice after intranasal treatment; parameters: species or system BALB/c mice; settings: for Percentage of cells from BAL determined by flow cytometry: B220 / Percentage of cells from BAL determined by flow cytometry: CD4 / Percentage of cells from BAL determined by flow cytometry: CD8 / Percentage of cells from BAL determined by flow cytometry: CD11b / Percentage of cells from BAL determined by flow cytometry: DX5 / Percentage of cells from BAL determined by flow cytometry: RB6-8C5 / Percentage of cells from BAL determined by H&E stain: Eosinophil / Percentage of cells from BAL determined by H&E stain: Lymphocyte / Percentage of cells from BAL determined by H&E stain: Macrophage / Percentage of cells from BAL determined by H&E stain: PMN: day 2 post-treatment; for Percentage of cells from BAL determined by flow cytometry: B220 / Percentage of cells from BAL determined by flow cytometry: CD4 / Percentage of cells from BAL determined by flow cytometry: CD8: lymphocyte gate; for Percentage of cells from BAL determined by flow cytometry: CD11b / Percentage of cells from BAL determined by flow cytometry: DX5 / Percentage of cells from BAL determined by flow cytometry: RB6-8C5: ungated events; for Percentage of cells from BAL determined by H&E stain: Eosinophil / Percentage of cells from BAL determined by H&E stain: Lymphocyte / Percentage of cells from BAL determined by H&E stain: Macrophage / Percentage of cells from BAL determined by H&E stain: PMN / mean BAL cell numbers (±SEM) recovered: naïve BALB/c mice; for Percentage of cells from BAL determined by H&E stain: Eosinophil / Percentage of cells from BAL determined by H&E stain: Lymphocyte / Percentage of cells from BAL determined by H&E stain: Macrophage / Percentage of cells from BAL determined by H&E stain: PMN: i.n. 1 μM, median ± SE; for mean BAL cell numbers (±SEM) recovered: intranasal 1 μM, 48 hours post-treatment
Description: FIG. 5A is a bar graph showing leukocyte chemotaxis toward G glycoprotein or fractalkine (Fkn) in the presence or absence of anti-CX3CR1 antibody or normal rabbit sera. The chemotactic index determined from the fold increase of murine leukocyte migration toward the chemoattractant (e.g., Fkn or G glycoprotein) over the leukocyte migration toward the media alone control using modified Boyden chambers. Fkn, G glycoprotein, […] (10 μg) or normal rabbit sera (10 μg) was added to the upper chamber to examine antagonism of cell migration toward the chemoattractant in the lower chamber. FIG. 5B is a bar graph showing cell trafficking to the lung of naïve BALB/c mice intranasally treated with G glycoprotein, fractalkine or G glycoprotein peptides RT32, RT33 or RT34. BAL cells were fixed and stained with H&E. Cell subsets were determined as a percentage of the total BAL cells counted from >200 cells/slide counting two slides for each experiment. The percent cell type represents the median±SE from three separate experiments. * indicates significant difference compared to tissue culture media alone (p<0.05). Naïve BALB/c mice were i.n. treated with 1 μM G glycoprotein or fractalkine or with 1 μM G glycoprotein peptides. The BAL was collected 2 days post-treatment for analysis.
Cell trafficking to the lung in naïve and FI-RSV-immune BALB/c mice was examined following intranasal treatment with either 1 μM fractalkine, RSV G glycoprotein or RSV G peptides. All mice were females purchased from Harlan Sprague Dawley (Indianapolis, Ind.) and maintained at the Centers for Disease Control and Prevention in Atlanta, Ga. FI-RSV-immune mice were immunized in the superficial gluteal muscle using 10^6 pfu equivalents of FI-RSV in accordance with methods known to those skilled in the art. Mice were anesthetized with 2,2,2,-tribromoethanol and intranasally treated with 0.05 ml of either fractalkine, RSV G glycoprotein or peptide diluted in PBS (GIBCO). At day two post-treatment, the mice were anesthetized, exsanguinated by severing the right caudal artery, and the bronchoalveolar (BAL) cells collected in PBS containing 1% BSA (Sigma). BAL cells were blocked with 10% normal mouse sera (Jackson Laboratories, Bar Harbor, Me.) in PBS, and then stained with the appropriate combinations of FITC- or PE-labeled anti-CD3 (145-2C11), anti-CD4 (GK1.5), anti-CD8 (53-6.7), anti-CD11b (M1/70), anti-CD45R/B220 (RA3-6B2), anti-pan NK cell (DX5), anti-neutrophil (RB6-8C5), and mouse isotype Ab controls (all from PharMingen, San Diego, Calif.). The distribution of cell surface markers was determined in two-color mode on a FACScan with CellQUEST software (Becton-Dickinson, Mountain View, Calif.).

[2] = tested on: human peripheral blood mononuclear cells; assay: Human PBMC chemotaxis and CX3CR1 expression in modified Boyden chamber; format: cell-based; settings: for Chemotactic Indices / CX3CR1 Expression (%) Lower / CX3CR1 Expression (%) Upper: 6 h
Description: Leukocyte chemotaxis toward Fkn, G glycoprotein or media was measured according to Boyden^46 using 24 well plates (Costar, Cambridge, Mass.) with 3 μm filter inserts (Nalge Nunc, Rochester, N.Y.) coated with an extracellular matrix consisting primarily of laminin, collagen IV and proteoglycan (ECM, Sigma, St. Louis, Mo.). For murine studies, 5×10^5 naïve spleen cells was placed in the upper chamber and 10 nM mouse Fkn or 10 nM G glycoprotein, anti-CX3CR1 antibody, anti-G or anti-F glycoprotein monoclonal antibody, normal rabbit sera, rabbit anti-CCR5 sera or media was placed in the upper or lower chamber as appropriate. For human studies, 10^6 density gradient purified (Lymphocyte Separation Media, ICN Biomedicals, Aurora, Ohio, per manufacture instructions) peripheral blood mononuclear cells (PBMC) from normal human adult donors was placed in the upper chamber in the presence or absence of 1 μM peptide RT33, and 10 nM human Fkn, 10 nM G glycoprotein or 1 μM peptide RT33 placed in the lower chambers. The modified Boyden chamber was incubated at 37° C. for 4-6 h, the inserts removed, washed in PBS (GIBCO BRL), fixed in 3% gluteraldehyde and stained in formalin-buffered 0.01% crystal violet. Chemotactic cells were visualized with a microscope. Chemotactic cells were analyzed for CX3CR1 expression by collecting cells from the upper or lower modified Boyden chambers, antibody staining (2A9-1) and flow cytometry as described. Leucocytes chemotactic toward G or Fkn expressed a higher percent of CX3CR1 in the lower (25-30%) versus upper chamber (7-11%).
Leukocyte chemotaxis and percent positive CX3CR1 expression on human PBMC after a 6 h chemotaxis assay were determined. The percentage of cells positive for CX3CR1 in both upper and lower modified Boyden chambers are shown. Chemotactic indices were determined from the fold increase of leukocyte migration toward the chemoattractant, i.e. Fkn, G glycoprotein or peptide RT33, over the leukocyte migration toward media alone. TCM=tissue culture media.

RSV = RSV plaque reduction by small molecule peptide inhibitors on Vero cells (Example II); format: cell-based, RSV/A2; settings: peptide added to heparin 5 μg/ml; in words
Description: Vero cells were treated with PBS, RT33, RT34, Δ+1, Δ−1 and EYp1 peptides (100 μm) in the presence (B) or absence of heparin (A) (5 μg/ml). Percentage inhibition was determined by dividing the mean plaque forming units (PFU) of treated Vero cells by the mean PFU of PBS-treated Vero cells.
Different concentrations of the G glycoprotein peptides and/or 5 μg/ml heparin (Sigma) were diluted in Dulbecco's phosphate buffered saline (D-PBS; GIBCO) and added to Vero cell monolayers for 1 h at 37° C. Pre-treated Vero cells were infected with 10^6 PFU of RSV/A2 diluted in serum-free DMEM (GIBCO) for 2 h at 37° C., after which DMEM (GIBCO) containing 10% FBS (Hyclone, Logan, Utah) was added, and the infected cells incubated at 37° C. for 3-4 days. Plaques were enumerated by immunostaining with monoclonal antibodies against the G and F glycoproteins (130-2G and 131-2A, respectively), as described (54,55).

[3] = TCM in upper chamber, substance in lower chamber (10 nM G or Fkn, 1 μM RT33)
[4] = TCM in upper chamber, substance in lower chamber
[5] = 1 μM RT33 in upper chamber, Fkn in lower chamber
[6] = 1 μM RT33 in upper chamber, G glycoprotein in lower chamber

Row | Molecule | Percentage of cells from BAL determined by flow cytometry: B220 [1] [%] | Percentage of cells from BAL determined by flow cytometry: CD4 [1] [%] | Percentage of cells from BAL determined by flow cytometry: CD8 [1] [%] | Percentage of cells from BAL determined by flow cytometry: CD11b [1] [%] | Percentage of cells from BAL determined by flow cytometry: DX5 [1] [%] | Percentage of cells from BAL determined by flow cytometry: RB6-8C5 [1] [%] | Percentage of cells from BAL determined by H&E stain: Eosinophil [1] [%] | Percentage of cells from BAL determined by H&E stain: Lymphocyte [1] [%] | Percentage of cells from BAL determined by H&E stain: Macrophage [1] [%] | Percentage of cells from BAL determined by H&E stain: PMN [1] [%] | mean BAL cell numbers (±SEM) recovered [1] | Chemotactic Indices [2, 3] | CX3CR1 Expression (%) Lower [2, 4] | CX3CR1 Expression (%) Upper [2, 4] | effect of adding peptide to heparin on plaque reduction (RSV) | further results
1 | Fkn: CX3C chemokine fractalkine (R&D), ligand of CX3CR1 [reference compound] | 6 ± 2 | 16 ± 4 | 6 ± 2 | 12 ± 4 | 17 ± 8 | 10 ± 6 | 0 ± 0 | 10 ± 3 | 71 ± 10 | 16 ± 5 | 3.8 (±0.6) ×10^5 cells/ml | 3.2-3.7 | 26-30% | 7-8% |  | 
2 | NKKPGKKTTTKP [RT34] | 4 ± 2 | 6 ± 2 | 3 ± 3 | 3 ± 1 | 6 ± 2 | 6 ± 4 | 0 ± 0 | 8 ± 2 | 86 ± 8 | 8 ± 3 | 2.8 (±0.2) ×10^5 cells/ml |  |  |  | no effect above heparin treatment alone | 
3 | TCWACKRIPNK (TCWAIACKRIPNK) [Δ − 1] |  |  |  |  |  |  |  |  |  |  |  |  |  |  | no effect above heparin treatment alone | 
4 | TCWAIACKRIPNK [Δ + 1] |  |  |  |  |  |  |  |  |  |  |  |  |  |  | no effect above heparin treatment alone | 
5 | TCWAICKRIPNK [RT33] | 4 ± 2 | 10 ± 2 | 4 ± 2 | 10 ± 4 | 10 ± 2 | 12 ± 2 | 0 ± 0 | 4 ± 2 | 76 ± 8 | 16 ± 6 | 3.5 (±0.3) ×10^5 cells/ml | 1.6-2.2 | 16-18% | 11-16% |  | CX3CR1 Expression (%) Lower [2, 5]: 6-14%; CX3CR1 Expression (%) Upper [2, 5]: 16-21%; Chemotactic Indices [2, 5]: 1.8-2.2; CX3CR1 Expression (%) Lower [2, 6]: 9-14%; CX3CR1 Expression (%) Upper [2, 6]: 16-18%; Chemotactic Indices [2, 6]: 1.5-2.0; effect on chemotaxis toward G glycoprotein and Fkn ([2]; peptide added to upper Boyden chamber, in words): reduced chemotaxis toward both G glycoprotein and Fkn
6 | VPCSICSNNPTC [RT32] | 3 ± 2 | 2 ± 2 | 2 ± 2 | 3 ± 2 | 2 ± 1 | 2 ± 2 | 0 ± 0 | 12 ± 4 | 94 ± 5 | 2 ± 2 | 2.2 (±0.5) ×10^5 cells/ml |  |  |  |  | 
7 | B1 | 5 ± 4 | 8 ± 2 | 4 ± 3 | 12 ± 5 | 9 ± 6 | 10 ± 4 | 0 ± 0 | 10 ± 3 | 68 ± 10 | 22 ± 4 | 4.6 (±1.1) ×10^5 cells/ml | 3.0-3.6 | 25-30% | 8-11% |  | 
